Results taken from patent publication US11414431B2, “Substituted pyrazolo[1,5-a]pyrimidines as TYK2 inhibitors” (Nimbus Lakshmi, Inc., priority 2018, dated 2022).

Molecular target: human TYK2 (JH2domain-pseudokinase) (Homo sapiens (Human), UniProt P29597)
Assay: TYK2 JH2 Domain Binding Assay (KINOMEscan)
Details: 11-point 3-fold dilution, top concentration 30,000 nM, duplicate; read-out: hTYK2_JH2_Binding (Kd; nM)
Protocol: Binding constants for compounds of the present invention against the JH2 domain were determined by the following protocol for a KINOMEscan® assay (DiscoveRx). A fusion protein of a partial length construct of human TYK2 (JH2domain-pseudokinase) (amino acids G556 to D888 based on reference sequence NP_003322.3) and the DNA binding domain of NFkB was expressed in transiently transfected HEK293 cells. From these HEK 293 cells, extracts were prepared in M-PER extraction buffer (Pierce) in the presence of Protease Inhibitor Cocktail Complete (Roche) and Phosphatase Inhibitor Cocktail Set II (Merck) per manufacturers' instructions. The TYK2(JH2domain-pseudokinase) fusion protein was labeled with a chimeric double-stranded DNA tag containing the NFkB binding site (5′-[…]-3′) fused to an amplicon for qPCR readout, which was added directly to the expression extract (the final concentration of DNA-tag in the binding reaction is 0.1 nM).
The liganded beads were blocked with excess biotin and washed with blocking buffer (SeaBlock (Pierce), 1% BSA, 0.05% Tween 20, 1 mM DTT) to remove unbound ligand and to reduce nonspecific binding.
Extracts were loaded with DNA-tag and diluted into the binding reaction in a two step process. First extracts were diluted 1:100 in 1× binding buffer (PBS/0.05% Tween 20/10 mM DTT/0.1% BSA/2 μg/ml sonicated salmon sperm DNA) containing 10 nM DNA-tag. This dilution was allowed to equilibrate at room temperature for 15 minutes and then subsequently diluted 1:100 in 1× binding buffer. […] Kds were determined using an 11-point 3-fold compound dilution series with three DMSO control points. […] The compounds were then diluted directly into the assays such that the final concentration of DMSO was 0.9%. All reactions performed in polypropylene 384-well plates. Each was a final volume of 0.02 mL. Assays were incubated with shaking for 1 hour at room temperature. Then the beads were pelleted and washed with wash buffer (lx PBS, 0.05% Tween 20) to remove displaced kinase and test compound. […] The qPCR protocol consisted of a 10 minute hot start at 95° C., followed by 35 cycles of 95° C. for 15 seconds, 60° C. for 1 minute.
Kds were determined using an 11-point 3-fold compound dilution series with three DMSO control points. […] The compounds were then diluted directly into the assays such that the final concentration of DMSO was 0.9%. The Kds were determined using a compound top concentration of 30,000 nM. Kd measurements were performed in duplicate.
Binding constants (Kds) were calculated with a standard dose-response curve using the Hill equation: […]
The Hill Slope was set to −1.

Sequence of human TYK2 (JH2domain-pseudokinase) (P29597 556-888): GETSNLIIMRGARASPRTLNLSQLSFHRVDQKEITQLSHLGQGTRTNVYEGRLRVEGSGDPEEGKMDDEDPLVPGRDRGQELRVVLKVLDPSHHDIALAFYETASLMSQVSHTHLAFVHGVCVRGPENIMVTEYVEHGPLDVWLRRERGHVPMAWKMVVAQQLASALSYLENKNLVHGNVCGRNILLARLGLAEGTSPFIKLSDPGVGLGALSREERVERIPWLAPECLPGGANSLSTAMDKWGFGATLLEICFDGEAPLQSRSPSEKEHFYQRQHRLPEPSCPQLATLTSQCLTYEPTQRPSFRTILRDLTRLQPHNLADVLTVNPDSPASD

| Compound | Kd [nM] |
| --- | --- |
| CNc1cc(Nc2cccn(C3CC(F)(F)C3)c2=O)nc2c(C(=O)N[C@H]3CCC[C@](C)(O)C3)cnn12 [Compound I-93, 5-((1-(3,3-Difluorocyclobutyl)-2-oxo-1,2-dihydropyridin-3-yl)amino)-N-((1S,3S)-3-hydroxy-3-methylcyclohexyl)-7-(methylamino)pyrazolo[1,5-a]pyrimidine-3-carboxamide] | 0.2 to 1 |
| CNc1cc(Nc2cccn(C3CCOCC3)c2=O)nc2c(C(=O)N[C@H]3C[C@@H]3OC)cnn12 [Compound I-28, N-((1S,2S)-2-Methoxycyclopropyl)-7-(methylamino)-5-((2-oxo-1-(tetrahydro-2H-pyran-4-yl)-1,2-dihydropyridin-3-yl)amino)pyrazol[1,5-a]pyrimidine-3-carboxamide] | < 0.2 |
| CNc1cc(-c2cnc3n(CC(=O)N4CC5(COC5)C4)cccc2-3)nc2c(C(=O)N[C@@H]3CC[C@H]3OC)cnn12 [Compound I-1013] | < 0.2 |
| CNc1cc(Nc2cccn([C@@H]3CC[C@@H]3O)c2=O)nc2c(C(=O)N[C@@H]3CCC[C@@H](OC)C3)cnn12 [Compound I-99, 5-((1-((1R,2S)-2-Hydroxycyclobutyl)-2-oxo-1,2-dihydropyridin-3-yl)amino)-N-((1R,3R)-3-methoxycyclohexyl)-7-(methylamino)pyrazolo[1,5-a]pyrimidine-3-carboxamide] | 0.2 to 1 |
| CNc1cc(-c2ccc(N3CC[C@H](OC)C3)c3nccn23)nc2c(C(=O)NC3CC[C@H]3O)cnn12 (stereo partly shown) [Compound I-907] | < 0.2 |
| CNc1cc(Nc2cccn(C(C)C)c2=O)nc2c(C(=O)N[C@H]3C[C@@H]3OC)cnn12 [Compound I-30, 5-((1-Isopropyl-2-oxo-1,2-dihydropyridin-3-yl)amino)-N-((1S,2S)-2-methoxycyclopropyl)-7-(methylamino)pyrazolo[1,5-a]pyrimidine-3-carboxamide] | 0.2 to 1 |
| O=C(N[C@@H]1C[C@@H]1F)c1cnn2c3c(c(Nc4cccn(C5CCOCC5)c4=O)nc12)OCCN3 [Compound I-751, N-((1R,2S)-2-Fluorocyclopropyl)-5-((2-oxo-1-(tetrahydro-2H-pyran-4-yl)-1,2-dihydropyridin-3-yl)amino)-2,3-dihydro-1H-pyrazolo[5′,1′:2,3]pyrimido[5,4-b][1,4]oxazine-7-carboxamide] | < 0.2 |
| CNc1cc(Nc2cccn(C3CC(F)(F)C3)c2=O)nc2c(C(=O)N[C@H]3CCC[C@]3(C)O)cnn12 [Compound I-90, 5-((1-(3,3-Difluorocyclobutyl)-2-oxo-1,2-dihydropyridin-3-yl)amino)-N-((1S,2S)-2-hydroxy-2-methylcyclopentyl)-7-(methylamino)pyrazolo[1,5-a]pyrimidine-3-carboxamide] | > 10 |
| CNc1cc(Nc2cccn([C@H]3[C@@H]4COC[C@@H]43)c2=O)nc2c(C(=O)N[C@@H]3CCC3(F)F)cnn12 [Compound I-308] | < 0.2 |
| CNc1cc(Nc2cccn([C@H]3CCC[C@H]3O)c2=O)nc2c(C(=O)N[C@@H]3CC[C@@H](OC)C3)cnn12 [Compound I-87, 5-((1-((1S,2R)-2-Hydroxycyclopentyl)-2-oxo-1,2-dihydropyridin-3-yl)amino)-N-((1R,3R)-3-methoxycyclopentyl)-7-(methylamino)pyrazolo[1,5-a]pyrimidine-3-carboxamide] | > 10 |
| CNc1cc(-c2cnc3n(CC(=O)N(C)C)cccc2-3)nc2c(C(=O)NC3CC[C@@H]3OC)cnn12 (stereo partly shown) [Compound I-961] | < 0.2 |
| CNc1cc(Nc2cccn([C@H]3CCC[C@@](C)(O)C3)c2=O)nc2c(C(=O)NC3CC3)cnn12 [Compound I-2, N-Cyclopropyl-5-((1-((1S,3R)-3-hydroxy-3-methylcyclohexyl)-2-oxo-1,2-dihydropyridin-3-yl)amino)-7-(methylamino)pyrazolo[1,5-a]pyrimidine-3-carboxamide] | 0.2 to 1 |
| CNc1cc(Nc2cccn(C(C)C)c2=O)nc2c(C(=O)N[C@H]3CC[C@]3(C)O)cnn12 [Compound I-340] | < 0.2 |
| CNc1cc(Nc2cccn(C3CC(F)(F)C3)c2=O)nc2c(C(=O)N[C@@H]3CC[C@@H](OC)C3)cnn12 [Compound I-72, 5-((1-(3,3-Difluorocyclobutyl)-2-oxo-1,2-dihydropyridin-3-yl)amino)-N-((1R,3R)-3-methoxycyclopentyl)-7-(methylamino)pyrazolo[1,5-a]pyrimidine-3-carboxamide] | 1 to 10 |
| CNc1cc(Nc2cccn([C@H]3CC[C@@H]3O)c2=O)nc2c(C(=O)N[C@H]3CCC[C@H](OC)C3)cnn12 [Compound I-97, 5-((1-((1S,2S)-2-Hydroxycyclobutyl)-2-oxo-1,2-dihydropyridin-3-yl)amino)-N-((1S,3S)-3-methoxycyclohexyl)-7-(methylamino)pyrazolo[1,5-a]pyrimidine-3-carboxamide] | 1 to 10 |
| CNc1cc(Nc2cccn([C@@H]3CCC[C@@H]3O)c2=O)nc2c(C(=O)N[C@H]3CC[C@H](OC)C3)cnn12 [Compound I-79, 5-((1-((1R,2S)-2-Hydroxycyclopentyl)-2-oxo-1,2-dihydropyridin-3-yl)amino)-N-((1S,3S)-3-methoxycyclopentyl)-7-(methylamino)pyrazolo[1,5-a]pyrimidine-3-carboxamide] | 0.2 to 1 |
| CNc1cc(Nc2cccn([C@H]3C[C@@H]3F)c2=O)nc2c(C(=O)N[C@H]3CC[C@@H](O)C3)cnn12 [Compound I-45, 5-((1-((1S,2S)-2-Fluorocyclopropyl)-2-oxo-1,2-dihydropyridin-3-yl)amino)-N-((1S,3R)-3-hydroxycyclopentyl)-7-(methylamino)pyrazolo[1,5-a]pyrimidine-3-carboxamide] | 0.2 to 1 |
| CO[C@@H]1CC[C@H]1NC(=O)c1cnn2c3c(c(Nc4cccn([C@H]5[C@@H]6COC[C@@H]65)c4=O)nc12)OCCN3 [Compound I-763] | > 10 |
| CNc1ccc(-c2cc(NC)n3ncc(C(=O)NC4CCC4(F)F)c3n2)n2ccnc12 (stereo not shown) [Compound I-491] | < 0.2 |

Results, then the compound that gave them:

| Kd [nM] | Compound |
| --- | --- |
| < 0.2 | CNc1cc(-c2cn(C3COC3)c3ncccc23)nc2c(C(=O)N[C@@H]3CC[C@H]3F)cnn12 [Compound I-509] |
| < 0.2 | CNc1cc(-c2cn([C@H]3CCOC[C@@H]3O)c3ncccc23)nc2c(C(=O)NC3CC3)cnn12 [Compound I-498] |
| < 0.2 | O=C(N[C@H]1CCC1(F)F)c1cnn2c3c(c(-c4cn(C5COC5)c5ncccc45)nc12)OCCN3 [Compound I-773] |
| < 0.2 | CNc1cc(-c2cn([C@H]3CCCOC3)c3ncccc23)nc2c(C(=O)N[C@H]3COC[C@H]3O)cnn12 [Compound I-60, N-((3S,4S)-4-Hydroxytetrahydrofuran-3-yl)-7-(methylamino)-5-(1-((S)-tetrahydro-2H-pyran-3-yl)-1H-pyrrolo[2,3-b]pyridin-3-yl)pyrazolo[1,5-a]pyrimidine-3-carboxamide] |
| < 0.2 | CNc1cc(-c2cn([C@H]3COC[C@@H]3O)c3ncccc23)nc2c(C(=O)NC3CC3)cnn12 [Compound I-496] |
| < 0.2 | CNc1cc(-c2cnc3n([C@H]4COC[C@@H]4OC)cccc2-3)nc2c(C(=O)N[C@@H]3C[C@@H]3F)cnn12 [Compound I-823] |
| < 0.2 | CNc1cc(-c2cn([C@@H]3COC[C@H]3OC)c3ncccc23)nc2c(C(=O)N[C@@H]3C[C@@H]3F)cnn12 [Compound I-503] |
| > 10 | CNc1ccc(-c2cc(NC)n3ncc(C(=O)N[C@H]4CC[C@@H]4OC)c3n2)n2ccnc12 [Compound I-489] |
| < 0.2 | CNc1cc(-c2cn([C@@H]3CCOC[C@H]3O)c3ncccc23)nc2c(C(=O)N[C@@H]3C[C@@H]3F)cnn12 [Compound I-505] |
